Laboratory results reported in patent US8716355B2, “Hydroxylated tolans and related compounds in the treatment of a cancer” (Kent State University, priority 2007, dated 2014).
“And” between values parts separate entries of the source, which are not always exact repeats. Identical values can stand only once. Like-named read-outs stand apart in the source and are kept apart here.

Legend:
[1] = system: normal human fibroblasts (MHRF); assay: MTT cytotoxicity, normal human fibroblasts; format: cell-based; conditions: for CD50 against MHRF: MTT
Description: As a first step, the antitumor activity of the tolans was assessed against a panel of three cancer cells lines that produce solid tumors upon implantation into animals. DU145 is an androgen-independent prostate cancer cells. T24 is a transitional cell bladder carcinoma cell. MDAH2274 (“MDAH) is an endometroid ovarian adenocarcinoma cell. To assess the selectivity of this antitumor activity, the toxicity of the tolans to normal human fibroblasts (MHRF) was examined. Subsequently, studies with Tolan-3 (KST-201) were expanded to test its action on a wide range of tumor cell lines.
(§1) Cell killing was evaluated using the colorimetric MTT assay. The assay measures the formation of a colored product from a chromogenic precursor, the tetrazole 3-[4,5-dimethylthiazol-2-yl]-2,5 diphenyltetrazolium bromide (MTT). The yellow MTT is reduced to purple formazan in the mitochondria of living cells. A solubilization solution (typically dimethyl sulfoxide or sodium dodecyl sulfate in dilute hydrochloric acid) is added to dissolve the insoluble purple formazan product into a colored solution. The absorbance of this colored solution is quantified by measuring at a certain wavelength (usually between 500 and 600 nm) by a spectrophotometer. The amount of purple formazan product generated is proportional to the number of viable cells (Mosmann, T., 1983, J. Immunol. Meth. 65:55-63; Wilson, A. P., Cytotoxicity and Viability Assays. In: Animal Cell Culture: A Practical Approach, 3rd ed. (Masters, J R W, ed.) Oxford University Press: Oxford, Vol. 1, pp. 175-219. 2000). This MTT assay is used widely to assess the cytotoxicity and selectivity of compounds such as anti-cancer drugs. The assay is suitable for rapid toxicity characterization of a test agent such as a drug formulation. […] A lower CD50 indicates a greater cytotoxic activity (as a lower amount of the agent is needed to achieve a fixed level of cytotoxicity). Two agents can be compared by examining the fold-increase or decrease in their CD50 values.

MDAH2274 = assay: MTT cytotoxicity, MDAH2274 ovarian cancer cells; format: cell-based, human
Description: As a first step, the antitumor activity of the tolans was assessed against a panel of three cancer cells lines that produce solid tumors upon implantation into animals. DU145 is an androgen-independent prostate cancer cells. T24 is a transitional cell bladder carcinoma cell. MDAH2274 (“MDAH) is an endometroid ovarian adenocarcinoma cell. To assess the selectivity of this antitumor activity, the toxicity of the tolans to normal human fibroblasts (MHRF) was examined.
as §1, with “The amount of purple formazan product generated is proportional to the number of viable cells (Mosmann, T., 1983, J. Immunol. Meth. 65:55-63; Wilson, A. P., Cytotoxicity and Viability Assays. In: Animal Cell Culture: A Practical Approach, 3rd ed. (Masters, J R W, ed.) Oxford University Press: Oxford, Vol. 1, pp. 175-219. 2000).” left out

NCIH460 = assay: MTT cytotoxicity, NCIH460 lung; format: cell-based; conditions: Homo sapiens, NCI-H460, 72 h; 3 Days; read-out: CD50 (μM) NCIH460
Description: as §1, with “Two agents can be compared by examining the fold-increase or decrease in their CD50 values.” left out

A375 = assay: MTT cytotoxicity, A375 melanoma; format: cell-based; conditions: Homo sapiens, A-375, 72 h; 3 Days; read-out: CD50 (μM) A375
Description: as §1, with “Two agents can be compared by examining the fold-increase or decrease in their CD50 values.” left out

MeWo = assay: MTT cytotoxicity, MeWo melanoma; format: cell-based; conditions: Homo sapiens, 72 h, 3 Days, read-out: CD50 (μM) MeWo
Description: as §1, with “Two agents can be compared by examining the fold-increase or decrease in their CD50 values.” left out

SKMEL28 = assay: MTT cytotoxicity, SKMEL28 melanoma; format: cell-based; conditions: Homo sapiens, SK-MEL-28, 72 h; 3 Days; read-out: CD50 (μM) SKMEL28
Description: as §1, with “Two agents can be compared by examining the fold-increase or decrease in their CD50 values.” left out

rat-organ homogenates [2] = conditions: cited from earlier work
rat-organ homogenates [3] = conditions: cited from earlier work; remark: listed apart in the source
rat erythrocyte (RBC) = conditions: cited from earlier work
human recombinant COX-2 = molecular target: T1, human recombinant COX-2 (Homo sapiens, UniProt P35354); assay: COX Inhibitor Screening Assay, COX2; format: biochemical; conditions: doses of 10 to 200 μM tested
T1 construct: purchased Cayman Chemical 560131
T1 sequence (P35354 18-604): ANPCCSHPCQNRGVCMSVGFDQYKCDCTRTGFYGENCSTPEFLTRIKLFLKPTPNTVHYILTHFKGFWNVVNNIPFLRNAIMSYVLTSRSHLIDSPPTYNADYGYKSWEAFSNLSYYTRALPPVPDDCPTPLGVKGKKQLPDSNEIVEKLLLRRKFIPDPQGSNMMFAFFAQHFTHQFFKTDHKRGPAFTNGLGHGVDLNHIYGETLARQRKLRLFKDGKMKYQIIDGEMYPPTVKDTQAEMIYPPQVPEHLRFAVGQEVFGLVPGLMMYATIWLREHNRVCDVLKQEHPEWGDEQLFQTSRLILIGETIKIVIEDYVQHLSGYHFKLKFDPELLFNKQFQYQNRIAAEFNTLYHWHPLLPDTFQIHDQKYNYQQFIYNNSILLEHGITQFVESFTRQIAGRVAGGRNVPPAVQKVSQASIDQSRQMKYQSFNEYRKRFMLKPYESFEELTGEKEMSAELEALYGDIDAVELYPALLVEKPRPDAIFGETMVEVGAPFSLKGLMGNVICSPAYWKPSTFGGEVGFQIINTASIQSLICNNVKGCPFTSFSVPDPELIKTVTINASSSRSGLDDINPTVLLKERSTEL
From the text: The Cayman COX Inhibitor Screening Assay includes both ovine COX-1 and human recombinant COX-2 enzymes in order to screen isozyme-specific inhibitors.

prostate cancer = assay: Prostate cancer patients (Example VIII A); format: in vivo, human; conditions: daily 10 μg to 5 mg/Kg; no significant differences between the four groups
Description: A group of 40 men aged 55-75 suffering from prostate cancer receive a daily dosage of between 10 μg and 5 mg/Kg body weight of KST-201, KST-213, KST-301 or KST-401 (10 patients per compound). Examination of the patients by clinical, radiographic and histopathological tests show significant shrinkage in tumors, and signs of cell death in 38% of the patients; there are no significant differences between the four treatment groups.

ovarian cancer = assay: Ovarian cancer patients (Example VIII D); format: in vivo, human; conditions: daily gelatin capsule 200 mg
Description: A study is carried out in a group of 40 women with ovarian cancer of various grades to determine the effect of treatment with compounds of KST-201, KST-213, KST-301 and KST-401. The administration protocol involves daily administration of a gelatin capsule containing 200 mg of active compound.

[4] = Homo sapiens, 24 h, MTT, 1 day incubation, read-out: CD50 against MDAH, compound tested individually
[5] = Homo sapiens, 48 h, MTT, 2 days incubation, read-out: CD50 against MDAH, compound tested individually
[6] = Homo sapiens, 72 h, MTT, 3 days incubation, read-out: CD50 against MDAH, compound tested individually
[7] = MTT, 1 day incubation, read-out: CD50 against MDAH, compound tested individually

## Oc1ccc(/C=C/c2cc(O)cc(O)c2)cc1 [Resveratrol, 3,5,4′-trihydroxy-trans-stilbene, reference compound]
[1]; 1 day incubation
  CD50 against MHRF: 154.8 ± 16.5 µM
[1]; 1 day incubation, listed as resveratrol
  CD50 against MHRF: 155 µM
[1]; 2 days incubation
  CD50 against MHRF: 50.9 ± 0.6 µM
[1]; 3 days incubation
  CD50 against MHRF: 44.3 ± 3.0 µM and 47 ± 6.0 µM
[1]; 3 days incubation, listed as resveratrol
  CD50 against MHRF: 44 µM
MDAH2274; [4]
  IC50: 37 µM
MDAH2274; [5]
  IC50: 23.1 ± 0.14 µM
MDAH2274; [6]
  IC50: 15 µM
MDAH2274; [7]
  IC50: 36.9 ± 2.45 µM
MDAH2274; MTT, 3 days incubation, read-out: CD50 against MDAH, compound tested individually
  IC50: 14.6 ± 0.12 µM
NCIH460
  IC50: 43 ± 20 µM
A375
  IC50: 19 ± 0.2 µM
MeWo
  IC50: 185 ± 3.7 µM
SKMEL28
  IC50: 69 ± 1.2 µM
rat-organ homogenates [2]; rat brain
  Inhibition (%) of Fe2+ − VitC induced level of MDA at 15 μM, In rat brain: 83.20%
rat-organ homogenates [2]; rat kidney
  Inhibition (%) of Fe2+ − VitC induced level of MDA at 15 μM, In rat kidney: 62.15%
rat-organ homogenates [2]; rat liver
  Inhibition (%) of Fe2+ − VitC induced level of MDA at 15 μM, In rat liver: 50.36%
rat-organ homogenates [3]; rat brain
  Inhibition (%) of autooxidation MDA level at 7.5 μM, In rat brain: 69.93%
rat-organ homogenates [3]; rat kidney
  Inhibition (%) of autooxidation MDA level at 7.5 μM, In rat kidney: 40.37%
rat-organ homogenates [3]; rat liver
  Inhibition (%) of autooxidation MDA level at 7.5 μM, In rat liver: 67.69%
Rat erythrocyte (RBC)
  Inhibition (%) of RBC hemolysis induced by H2O2 at 4 μM: 45.23%

## Oc1ccc(C#Cc2ccc(O)cc2)cc1 [KST-201, 4,4′-dihydroxytolan]
[1]; 2 days incubation
  CD50 against MHRF: 194.1 ± 9.60 µM
[1]; 3 days incubation
  CD50 against MHRF: 153 µM and 153.2 ± 4.40 µM and 153 ± 4.4 µM
[1]; Table 15 vs Table 14
  Fold less toxic to normal fibroblasts than resveratrol: 3.5 fold
MDAH2274
  Fold more potent in killing MDAH2274 cells vs. control MHRF fibroblasts: 50 fold
MDAH2274; [4]
  IC50: 22 µM
MDAH2274; Homo sapiens, 24 h, VC:KST-201 400:1, 1 day, read-out: CD50 (μM) of each Compound tested in combination, MDAH 2274
  IC50: 1.16 µM
MDAH2274; [5]
  IC50: 10.5 ± 2.7 µM
MDAH2274; Homo sapiens, 48 h, VC:KST-201 400:1, 2 days, read-out: CD50 (μM) of each Compound tested in combination, MDAH 2274
  IC50: 0.97 ± 0.02 µM
MDAH2274; [6]
  IC50: 3.1 µM
MDAH2274; Homo sapiens, 72 h, VC:KST-201 400:1, 3 days, read-out: CD50 (μM) of each Compound tested in combination, MDAH 2274
  IC50: 0.98 µM
MDAH2274; MTT, 1 day incubation, listed as Hydroxytolan, read-out: CD50 against MDAH, compound tested individually
  IC50: 21.5 ± 7.4 µM
MDAH2274; MTT, 1 day incubation, listed as hydroxytolan, read-out: CD50 against MDAH, compound tested individually
  IC50: 21.5 µM
MDAH2274; [7]
  IC50: 21.5 ± 7.35 µM
MDAH2274; Table 15 vs Table 14
  Fold more toxic to MDAH 2274 ovarian cancer cells than resveratrol: 4.7 fold
MDAH2274; VC:KST-201 400:1, 1 day
  Increase of cytotoxic potency in the combination, MDAH 2274: about 20 fold
NCIH460
  IC50: 42 ± 2 µM
A375
  IC50: 4.6 ± 0.1 µM
MeWo
  IC50: 156 ± 2.5 µM
SKMEL28
  IC50: 82 ± 10 µM
Human recombinant COX-2
  Inhibition of COX2 activity: about 50%
Prostate cancer
  Patients with significant shrinkage in tumors, and signs of cell death: 38%
Ovarian cancer
  Rate of production of ovarian cancer markers (Muc-1, Sp17): significant decrease
  Tumor growth during study period: Tumors regress or show no further growth
